Reference: patent US9242015B2, “Development and screening of contrast agents for in vivo imaging of Parkinson's disease” (The General Hospital Corporation, priority 2010, dated 2016)

Experiments:
AD NFT = test: Staining of neurofibrillary tangles (NFT) in AD temporal lobe sections; type: binding, human; conditions: 5 μM dye in PBS; also: key: positive (+) staining for both plaques and tangles; did not bind (−) AD pathology
Method: (§1) Paraffin-embedded formalin-fixed tissue from the temporal lobe of AD patients was obtained through the MA ADRC Brain Bank. Sections were stained with 0.05% Thio S to visualize plaques and NFT. Tissue was then stained with 5 μM dye in PBS. Slides were imaged on an Olympus Microscope at 20×, with a GFP emission filter for Thio S, and appropriate emission ranges for the dyes.

Lewy neurites = biological target: T1, Lewy neurites (Homo sapiens, UniProt P37840); test: Staining of Lewy neurites in post-mortem DLB/PD midbrain tissue; as to all read-outs here: key: positive staining with high contrast (++); positive staining with low contrast (+); negative staining (−); type: binding; conditions: for Lewy Neurites Contrast: DLB/PD post-mortem midbrain tissue, dyes in PBS at 500 nM, 5 μM for 30 minutes; for staining on a LN (FIG. 2): DLB post-mortem midbrain tissue
T1 construct: Post-mortem midbrain tissue from DLB and PD patients was obtained from the HBTRC Brain Bank at McLean Hospital; tissue HBTRC Brain Bank at McLean Hospital; host or cells: formalin-fixed post-mortem human midbrain (DLB and PD patients)
Method: (§3) Post-mortem midbrain tissue from DLB and PD patients was obtained from the HBTRC Brain Bank at McLean Hospital. Tissue was fixed with formalin and immuno-stained with H3C primary antibody for synuclein and Alexa488 or Cy5 (not shown) conjugated secondary antibody. Immuno-stained tissue was incubated with fluorescent dyes in PBS at concentrations of 500 nM, 2 μM, and 5 μM for 30 minutes. Slides of tissue were imaged with Olympus Microscope at 60× with appropriate filter set.

Lewy bodies = biological target: T2, Lewy bodies (Homo sapiens, UniProt P37840); test: Staining of Lewy bodies in post-mortem DLB/PD midbrain tissue; as to staining on a LB (FIG. 2): key: positive staining with high contrast (++); positive staining with low contrast (+); negative staining (−); type: binding; conditions: for Lewy Bodies Contrast: DLB/PD post-mortem midbrain tissue, dyes in PBS at 500 nM, 5 μM for 30 minutes; for staining on a LB (FIG. 2): DLB post-mortem midbrain tissue
T2 construct: Post-mortem midbrain tissue from DLB and PD patients was obtained from the HBTRC Brain Bank at McLean Hospital; tissue HBTRC Brain Bank at McLean Hospital; host or cells: formalin-fixed post-mortem human midbrain (DLB and PD patients)
Method: as §3

AD Plaque = test: Staining of plaques in AD temporal lobe sections; type: binding, human; conditions: 5 μM dye in PBS; also: key: positive (+) staining for both plaques and tangles; did not bind (−) AD pathology
Method: as §1

[1] = PD/APP transgenic mouse (18 mo), tail vein, 10 mg/kg, multi-photon microscope; cited from earlier work
[2] = Blood-brain barrier crossing by in vivo fluorescence imaging after IV injection; conditions: for BBB Crossing: mouse, in vivo
Text: (§2) Wide field fluorescence images were taken with a CCD camera on an Olympus microscope.
Images were taken with a BIO-RAD MRC1024 multi-photon microscope.
as §2

Row | Compound | AD NFT Contrast (AD NFT) | Lewy Neurites Contrast (Lewy neurites; 2 μM) | Lewy Bodies Contrast (Lewy bodies; 2 μM) | AD Plaque Contrast (AD Plaque) | also measured
1 | CN(C)c1ccc(C=CC=CC2=[N+](C)c3ccccc3C2(C)C)cc1.[O-][Cl+3]([O-])([O-])[O-] [LDS 730, 2-[4-[4-(dimethylamino)phenyl]-1,3-butadienyl]-1,3,3-trimethyl-3H-indolium perchlorate] | + | − | + |  | 
2 | CN1C(=CC=CC=CC=CC2=[N+](C)c3ccccc3C2(C)C)C(C)(C)c2ccccc21.[O-][Cl+3]([O-])([O-])[O-] [HITC ClO4, 2-[7-(1,3-dihydro-1,3,3-trimethyl-2H-indol-2-ylidene)-1,3,5-heptatrienyl]-1,3,3-trimethyl-3H-indolium perchlorate] | − | − | + | − | 
3 | [11CH3]Nc1ccc(-c2nc3ccc(O)cc3s2)cc1 [PiB] |  |  |  |  | time to cross the BBB after IV injection [1]: ≤ 1 min
4 | CCN1C(=CC=CC=Cc2sc3ccccc3[n+]2CC)Sc2ccccc21.[I-] [3-3′-DTDCI, 3,3′-diethylthiadicarbocyanine iodide] | − | − | + | + | BBB Crossing [2]: −
5 | O=S(=O)([O-])c1ccccc1C=Cc1ccc(-c2ccc(C=Cc3ccccc3S(=O)(=O)[O-])cc2)cc1.[Na+].[Na+] [Stilbene 420, 2,2″-([1,1′-biphenyl]-4.4′-diyldi-2,1-ethenediyl)bis-benzenesulfonic acid disodium salt] | + | + | + + |  | 
6 | CC[n+]1ccc(C=CC=Cc2ccc(N(C)C)cc2)cc1.[O-][Cl+3]([O-])([O-])[O-] [LDS 722, 4-[4-[4-(dimethylamino)phenyl]-1,3-butadienyl]-1-ethyl-pyridinium perchlorate] | + + | + | + + | + + | logP (Log P): 1.04; staining on a LN (FIG. 2) (Lewy neurites; 2 μM): ++; staining on a LB (FIG. 2) (Lewy bodies; 2 μM): ++
7 | CCN(CC)c1ccc2nc3c4ccccc4c(=O)cc-3oc2c1 [Nile Red, 9-diethylamino-5-benzo[α]phenoxazinone] | − | − | + | − | logP (Log P): 3.51
8 | 4-[4-[4-(dimethylamino)phenyl]-1,3-butadienyl]-1-ethyl quinolinium [LDS 798] | − | − | + + | − | Log P (Log P): 1.8; BBB Crossing [2]: +; BBB crossing (wide field fluorescence time course) ([2]; wildtype mouse, IV, 10 mg/kg in 6% DMSO and 1×PBS): crosses BBB and rapidly enters brain
9 | CCN=c1cc2oc3c4c5c(cc3nc-2c2ccccc12)CCCN5CCC4 [Oxazine 750, reference compound] |  |  |  |  | staining on a LN (FIG. 2) (Lewy neurites; 5 μM): −; staining on a LB (FIG. 2) (Lewy bodies; 5 μM): −
10 | O=C1NC(=S)NC(=O)C1=C/C=C/C=C/c1c(O)[nH]c(=S)[nH]c1=O [THK-265] | − | − | + | + | BBB Crossing [2]: −
11 | CCN(CC)c1ccc2nc3c(cc(N)c4ccccc43)[o+]c2c1.[O-][Cl+3]([O-])([O-])[O-] [Nile Blue 690 ClO4, 5-amino-9-(diethylamino)-benzo[a]phenoxazin-7-ium perchlorate] | − | − | + + | − | 
